{"source": "patent US7056938B1", "about": "“Method for scavenging radicals with urocanic acid, derivatives and analogues” (Academisch Ziekenhuis Bij De Univ., priority 1999, dated 2006)", "assay": "deoxyribose (dR) degradation test, hydroxyl radical scavenging", "format": "biochemical", "procedure": "Trans-UCA, cis-UCA, related imidazoles and non-imidazole compounds were tested with regard to their ability to compete with deoxyribose to scavenge hydroxyl radicals. On exposure to hydroxyl radicals deoxyribose is degraded into malondialdehyde, which reacts with thiobarbituric acid to form a pink chromogen. Powerful hydroxyl-radical scavengers will compete with deoxyribose, resulting in a reduced amount of malondialdehyde. Ten compounds, UCA, UCA analogues, alanine and uric acid (FIG. 1) were tested on their ability to scavenge hydroxyl radicals.\nMethod: the deoxyribose (dR) degradation test. The test was analogous to an earlier described method. Briefly, the reactions were performed in 5 mL screw cap glass tubes in a final volume of 1.0 mL sodium phosphate buffer (50 mM; pH 7.2), containing 3.0 mM 2 deoxy-D-ribose, 0.5 mM hydrogen peroxide and one of the test compounds at graded concentrations. The reaction was started by the addition of premixed disodium EDTA and ferrous iron solution (final concentrations 0.5 mM and 0.2 mM, respectively). The mixture was left for 15 minutes at room temperature. After addition of 1.0 mL 1% thiobarbituric acid in 50 mM NaOH and 0.75 mL 2.8% trichloroacetic acid, the tubes were heated for 20 minutes in a boiling water bath. The pink color was read at 532 nm and reciprocal absorption values were plotted against the concentration of the test compound after subtraction of appropriate blanks. A series of six duplicate determinations from test compound dilutions was employed to construct a graph slope for the calculation of a rate constant value. The mean, SD, number of rate constants and the percentage of inhibition of deoxyribose degradation, calculated for each test compound, are listed. Results. All second-order rate constants for reaction with hydroxyl radicals and, in addition, the percentage inhibition of deoxyribose degradation with equimolar concentrations (3 mM) of scavenger are summarized in Table 1. Trans-UCA and cis-UCA are substantially more powerful in scavenging hydroxyl radicals (8.0 and 7.1×10^3 M^−1,s^−1, respectively), than the other 4-(5-)-substituted imidazoles, including L-histidine (2.6×10^2 M^−1,s^−1). L-histidine, the precursor of UCA, was included as a known moderate scavenger with structural similarities to UCA. L-alanine was used as a known poor scavenger. Trans-FAA was tested as a non-imidazole acrylic acid derivative, having a furan ring instead.\nFIG. 2. A determination of the second order rate constants of trans-UCA and cis-UCA with hydroxyl radicals. The rate constant was derived from the slope of the line (k=slope×kdR×[dR]×A0), where A0 is the absorbance, measured in the absence of hydroxyl radical scavenger. KdR was taken as 3.1×10^9 M^−1,s^−1, derived from pulse radiolysis studies, and [dR]=3 mM. […] The other scavengers were studied similarly.", "data": [{"molecule": "O=C(O)/C=C/c1cnc[nH]1", "note": "[trans-Urocanic acid, Trans-urocanic acid]", "values": [{"measurement": "INHIBITION of DEOXYRIBOSE DEGRADATION", "setting": "[SCAVENGER] = [DEOXYRIBOSE] = 3 Mm", "result": 67, "unit": "%"}, {"measurement": "SECOND ORDER RATE CONSTANT for reaction with hydroxyl radicals", "setting": "mean of n slopes, sodium phosphate buffer pH 7.2", "result": "8e+09", "unit": "M⁻¹ s⁻¹"}, {"measurement": "second order rate constant in the particular set of FIG. 2", "setting": "single set of FIG. 2, kdR 3.1×10^9, [dR]=3 mM", "result": "8.49 ×10^9 M^−1,s^−1"}]}]}
